Experimental data reported in the supplement of paper PMC10878532, “Sperm Toolbox—A selection of small molecules to study human spermatozoa” (PLOS ONE, 2024).
Where a name gives a salt, the structure may show the parent alone.

What was measured:
HeLa [1] = test: Cell Painting percent induction (share of features beyond 2 z-scores vs DMSO); higher = more features changed / larger toxic effect; extreme values may be limits of the assay; details: incubation time: 24h incubation
human spermatozoa [2] = test: progressively motile sperm, percent change vs DMSO (non-capacitating); higher = more of the measured sperm population than DMSO, for viability, fewer PI-positive (dead) cells than DMSO; extreme values may be limits of the assay
HepG2 = HepG2 toxicity (resazurin), effect normalised to DMSO (DMSO = 0); higher = more features changed / larger toxic effect; details: incubation time: 70h incubation
human spermatozoa [3] = test: acrosome-reacted (PNA+) sperm after agonist cocktail, percent change vs DMSO (capacitating); higher = more of the measured sperm population than DMSO, for viability, fewer PI-positive (dead) cells than DMSO; details: incubation time: 3h, capacitating + agonist cocktail 1h
human spermatozoa [4] = test: hyperactivated motile sperm, percent change vs DMSO (capacitating); higher = more of the measured sperm population than DMSO, for viability, fewer PI-positive (dead) cells than DMSO; details: incubation time: 30min incubation
human spermatozoa [5] = test: progressively motile sperm, percent change vs DMSO (capacitating); higher = more of the measured sperm population than DMSO, for viability, fewer PI-positive (dead) cells than DMSO; details: incubation time: 30min incubation
HeLa [6] = test: HeLa toxicity: nuclei-count effect normalised to DMSO (DMSO = 0); higher = more features changed / larger toxic effect; details: incubation time: 24h incubation
human spermatozoa [7] = test: change in acrosome-reacted (PNA+) sperm vs DMSO, no agonist (capacitating); higher = more of the measured sperm population than DMSO, for viability, fewer PI-positive (dead) cells than DMSO; details: incubation time: 3h
human spermatozoa [8] = test: viability fold change, 1 - (PI-positive fraction / DMSO median); higher = more of the measured sperm population than DMSO, for viability, fewer PI-positive (dead) cells than DMSO; details: incubation time: 3h, non-capacitating
human spermatozoa [9] = test: total motile sperm, percent change vs DMSO (non-capacitating); higher = more of the measured sperm population than DMSO, for viability, fewer PI-positive (dead) cells than DMSO
[10] = incubation time: 10min incubation, 9.99 µM
[11] = incubation time: 10min incubation, 29.9 µM
[12] = incubation time: 3h incubation, 9.99 µM
[13] = incubation time: 3h incubation, 29.9 µM
[14] = incubation time: 6h incubation, 9.99 µM
[15] = incubation time: 6h incubation, 29.9 µM
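For progressively motile sperm, percent change vs DMSO (non-capacitating) in this document: pooled live human sperm from at least 3 donors, tracked by automated microscopy in 0.5 s time-lapse movies, compounds at 10 and 30 µM, versus median of 16 DMSO wells per plate.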
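For total motile sperm, percent change vs DMSO (non-capacitating) in this document: sperm pooled from at least 3 donors, tracked in 0.5 s time-lapse movies by automated microscopy after 10 min, 3 h or 6 h with compound at 10 or 30 µM.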

Structure (SMILES) | Cell Painting percent induction (HeLa [1]; 9.99 µM) [%] | Cell Painting percent induction (HeLa [1]; 29.9 µM) [%] | progressively motile sperm (human spermatozoa [2]; [10]) [%] | progressively motile sperm (human spermatozoa [2]; [11]) [%] | progressively motile sperm (human spermatozoa [2]; [12]) [%] | progressively motile sperm (human spermatozoa [2]; [13]) [%] | progressively motile sperm (human spermatozoa [2]; [14]) [%] | progressively motile sperm (human spermatozoa [2]; [15]) [%] | HepG2 toxicity (HepG2; 10 µM) [%] | HepG2 toxicity (HepG2; 30 µM) [%] | acrosome-reacted (human spermatozoa [3]; 9.99 µM) [%] | acrosome-reacted (human spermatozoa [3]; 29.9 µM) [%] | hyperactivated motile sperm (human spermatozoa [4]; 9.99 µM) [%] | hyperactivated motile sperm (human spermatozoa [4]; 29.9 µM) [%] | progressively motile sperm (human spermatozoa [5]; 9.99 µM) [%] | progressively motile sperm (human spermatozoa [5]; 29.9 µM) [%] | HeLa toxicity: nuclei-count effect normalised (HeLa [6]; 9.99 µM) [%] | HeLa toxicity: nuclei-count effect normalised (HeLa [6]; 29.9 µM) [%] | change in acrosome-reacted (human spermatozoa [7]; 9.99 µM) [%] | change in acrosome-reacted (human spermatozoa [7]; 29.9 µM) [%] | viability fold change (human spermatozoa [8]; 9.99 µM) | viability fold change (human spermatozoa [8]; 29.9 µM) | total motile sperm (human spermatozoa [9]; [10]) [%] | total motile sperm (human spermatozoa [9]; [11]) [%] | total motile sperm (human spermatozoa [9]; [12]) [%] | total motile sperm (human spermatozoa [9]; [13]) [%] | total motile sperm (human spermatozoa [9]; [14]) [%] | total motile sperm (human spermatozoa [9]; [15]) [%]
CC(C)(O)c1ccn2c(-c3ccc(F)c(-c4ccc(F)cc4C#N)c3)cnc2c1F [TP 003] | 0.324 | 2.31 | 41.3 | 34.6 | 73.6 | 57.9 | 96 | 62.3 | 3.92 | 16.1 | 100 | 116 | 59.6 | -58 | 12.3 | 2.2 | 15.4 | 27.2 | 1.9 | 2.84 | -1.77 | -1.42 | 1.87 | -0.967 | -7.62 | -8.89 | -7.79 | -10.8
C=CC[C@@H]1/C=C(\C)C[C@H](C)C[C@H](OC)[C@H]2O[C@@](O)(C(=O)C(=O)N3CCCC[C@H]3C(=O)O[C@H](/C(C)=C/[C@@H]3CC[C@@H](O)[C@H](OC)C3)[C@H](C)[C@@H](O)CC1=O)[C@H](C)C[C@@H]2OC [Tacrolimus] | 0 | 0.072 | 5.82 | 0.659 | -17.7 | -17.9 | -13.1 | -20.1 | -3.53 | 10.6 | -13.9 | -24 | -13.3 | -55.8 | 0.476 | -0.37 | -1.94 | 18.1 | 0.533 | 0.376 | -1.97 | -2.04 | 3.53 | 3.6 | -6.77 | -2.1 | -8.35 | -8.9
COc1cc(C)c2c(Oc3cccc(C(F)(F)F)c3)c(OC)cc(NC(C)CCCN)c2n1 (centres undefined) [Tafenoquine] | 28.9 | 18 | -20.8 | -94.3 | -85.3 | -100 | -93.7 | -100 | 103 | 103 | 86.1 | 161 | -85.5 | -85.1 | -71.9 | -99.9 | 97.2 | 96.3 | 46.7 | 75 | -1.97 | -2.48 | -17.5 | -74.6 | -71.2 | -90.7 | -79.5 | -92
COc1cn(-c2ccc(-n3cccn3)cc2F)nc(-c2ccnn2-c2ccccc2)c1=O [Tak-063] | 1.19 | 3.31 | 26.4 | 27.7 | 64.8 | 48.7 | 74.2 | 44 | -4.05 | 8.05 | 114 | 117 | 321 | 303 | 4.06 | 10.1 | 6.28 | 2.94 | 0.708 | 0.393 | -1.78 | -1.87 | -3.81 | -3.32 | -11 | -14.9 | -15.5 | -20.7
CCOc1ccccc1OCCN[C@H](C)Cc1ccc(OC)c(S(N)(=O)=O)c1 [Tamsulosin] | 0 | 0 | 3.42 | 13.4 | 17.3 | 20.7 | 23.6 | 26.5 | -2.54 | 9.76 | 8.46 | 14.3 | 26 | 16.1 | 7.35 | 14.8 | -2.07 | 2.87 | 0.811 | 1.12 | -0.468 | -0.658 | 4.75 | 4.64 | 1.09 | 4.59 | 2.47 | 0.434
O=c1sn(-c2cccc3ccccc23)c(=O)n1Cc1ccccc1 [Tideglusib] | 0.036 | 0 | 4.02 | 2.42 | -2.59 | -0.339 | -4 | -0.265 | -4.62 | 4.74 | 5.65 | 6.56 | 17.7 | -11.8 | 9.17 | 6.85 | -2.47 | 7.35 | 0.723 | 0.984 | -1.71 | -1.3 | 2.52 | 3.97 | -5.07 | 0.868 | -6.75 | -2.88
Nc1ccc(-c2ccc3ncc4ccc(=O)n(-c5cccc(C(F)(F)F)c5)c4c3c2)cn1 [Torin 2] | 4.68 | 29.7 | 38.8 | 34.7 | 76.3 | 50.7 | 89.8 | 47.4 | 97.2 | 96 | 116 | 129 | 180 | 16.9 | 7.66 | 15.1 | 83.4 | 96.5 | 1.71 | 1.79 | -0.979 | -0.723 | -0.268 | 1.3 | -8.49 | -9.72 | -12.1 | -16.1
COc1cc2c(cc1OC)-c1c/c(=N\c3c(C)cc(C)cc3C)n(C)c(=O)n1CC2 [Trequinsin hydrochloride] | 0.036 | 0.36 | 33.3 | 28.3 | 76.1 | 48.1 | 76.6 | 44 | 11.1 | 40.3 | 102 | 120 | 192 | 73.7 | 8.14 | 16.2 | -1.54 | 27.5 | 1.55 | 1.58 | -1.81 | -1.99 | -3.16 | -4.39 | -11.3 | -17.8 | -12.7 | -22.8
O.O.O.OO.OO.[K+].[OH-].[V].c1cnc2c(c1)ccc1cccnc12 [bpV(phen)] | 0.793 | 2.7 | 6.92 | 8.6 | -1.94 | -6.75 | 3.08 | -21.9 | 28.8 | – | 16.4 | 21 | 17.7 | 12.9 | 3.97 | 14.8 | 34.3 | 34.7 | 1.06 | 1.79 | -0.0835 | -0.163 | 1.25 | 3.48 | -3.57 | -2.96 | -4.6 | -7.01
N=C(N)Nc1nc(-c2ccc(Cl)cc2)cs1 [n-[4-(4-Chlorophenyl)-1,3-thiazol-2-yl]guanidine] | 0 | 0.108 | 9.51 | 8.48 | 24 | 14.5 | 19.1 | 31 | 3.6 | -2.59 | 15.2 | 21.5 | 17.5 | 17.3 | 10.1 | 17 | 9.82 | 14.3 | 1.42 | 1.64 | -0.638 | -0.59 | 0.678 | 2.58 | 1.9 | -3.38 | -0.743 | 0.262
